Laboratory results from the NIST ThermoML archive (doi:10.1021/je060271a).
“And” between values parts separate entries of the source, which are not always exact repeats. Identical values can stand only once.

Settings: 343.15 K, Liquid, Vibrating tube method

CCCCCCC(=O)OCC(COC(=O)CCCCCC)(COC(=O)CCCCCC)COC(=O)CCCCCC [pentaerythritol tetraheptanoate]
Settings | mass density
13341 kPa | 950.4 kg/m3
13372 kPa | 950.4 kg/m3
13408 kPa | 950.3 kg/m3
13431 kPa | 950.4 kg/m3
13453 kPa | 950.5 kg/m3
13478 kPa | 950.4 kg/m3
13499 kPa | 950.4 kg/m3
13521 kPa | 950.4 kg/m3
13546 kPa | 950.5 kg/m3
13567 kPa | 950.5 kg/m3
13589 kPa | 950.5 kg/m3
13615 kPa | 950.5 kg/m3
13637 kPa | 950.5 kg/m3
13658 kPa | 950.6 kg/m3
13661 kPa | 950.5 kg/m3
13675 kPa | 950.6 kg/m3
13680 kPa | 950.6 kg/m3
13707 kPa | 950.6 kg/m3
13729 kPa | 950.6 kg/m3
13751 kPa | 950.7 kg/m3
13779 kPa | 950.6 kg/m3
13801 kPa | 950.7 kg/m3
13824 kPa | 950.7 kg/m3
13831 kPa | 950.7 kg/m3
13845 kPa | 950.8 kg/m3
13850 kPa | 950.6 kg/m3
13858 kPa | 950.8 kg/m3
13872 kPa | 950.8 kg/m3
13895 kPa | 950.8 kg/m3
13922 kPa | 950.8 kg/m3
13944 kPa | 950.7 kg/m3
13968 kPa | 950.8 kg/m3
13995 kPa | 950.8 kg/m3
14018 kPa | 950.9 kg/m3
14041 kPa | 950.8 kg/m3
14069 kPa | 950.8 kg/m3
14093 kPa | 950.9 kg/m3
14116 kPa | 950.9 kg/m3
14140 kPa | 950.9 kg/m3
14168 kPa | 950.9 kg/m3
14191 kPa | 950.9 kg/m3
14215 kPa | 951 kg/m3
14244 kPa | 951 kg/m3
14267 kPa | 950.8 kg/m3
14296 kPa | 951 kg/m3
14320 kPa | 951.1 kg/m3
14344 kPa | 951.1 kg/m3
14368 kPa | 951 kg/m3
14397 kPa | 951.1 kg/m3
14398 kPa | 951.2 kg/m3
14410 kPa | 951.1 kg/m3
14423 kPa | 951 kg/m3
14427 kPa | 951.1 kg/m3
14440 kPa | 951.1 kg/m3
14447 kPa | 951.2 kg/m3
14454 kPa | 951 kg/m3
14468 kPa | 951.1 kg/m3
14477 kPa | 951.2 kg/m3
14482 kPa | 951.2 kg/m3
14495 kPa | 951 kg/m3
14502 kPa | 951.1 kg/m3
14512 kPa | 951.2 kg/m3
14526 kPa | 951.1 kg/m3
14556 kPa | 951 kg/m3
14581 kPa | 951.2 kg/m3
14606 kPa | 951.1 kg/m3
14632 kPa | 951.3 kg/m3
14662 kPa | 951.1 kg/m3
14688 kPa | 951.2 kg/m3
14714 kPa | 951.3 kg/m3
14744 kPa | 951.3 kg/m3
14771 kPa | 951.3 kg/m3
14797 kPa | 951.4 kg/m3
14823 kPa | 951.4 kg/m3
14855 kPa | 951.2 kg/m3
14880 kPa | 951.4 kg/m3
14907 kPa | 951.3 kg/m3
14939 kPa | 951.4 kg/m3
14965 kPa | 951.4 kg/m3
14992 kPa | 951.5 kg/m3
15024 kPa | 951.5 kg/m3
15051 kPa | 951.6 kg/m3
15078 kPa | 951.7 kg/m3
15112 kPa | 951.6 kg/m3
15135 kPa | 951.6 kg/m3
15168 kPa | 951.5 kg/m3
15196 kPa | 951.6 kg/m3
15230 kPa | 951.7 kg/m3
15257 kPa | 951.6 kg/m3
15284 kPa | 951.8 kg/m3
15310 kPa | 951.7 kg/m3
15337 kPa | 951.7 kg/m3
15354 kPa | 951.7 kg/m3
15378 kPa | 951.7 kg/m3
15402 kPa | 951.8 kg/m3
15423 kPa | 951.8 kg/m3
15449 kPa | 951.7 kg/m3
15466 kPa | 951.8 kg/m3
15491 kPa | 951.8 kg/m3
15511 kPa | 951.8 kg/m3
15531 kPa | 951.9 kg/m3
15556 kPa | 951.9 kg/m3
15577 kPa | 952 kg/m3
15598 kPa | 951.9 kg/m3
15623 kPa | 952.1 kg/m3
15643 kPa | 951.9 kg/m3
15664 kPa | 951.9 kg/m3
15689 kPa | 951.9 kg/m3
15710 kPa | 951.9 kg/m3
15732 kPa | 951.9 kg/m3
15753 kPa | 952.1 kg/m3
15778 kPa | 952.1 kg/m3
15800 kPa | 952 kg/m3
15817 kPa | 952.1 kg/m3
15847 kPa | 952.1 kg/m3
15868 kPa | 952.2 kg/m3
15890 kPa | 952.1 kg/m3
15916 kPa | 952.2 kg/m3
15938 kPa | 952.1 kg/m3
15964 kPa | 952.1 kg/m3
15985 kPa | 952.1 kg/m3
16008 kPa | 952.2 kg/m3
16034 kPa | 952.2 kg/m3
16056 kPa | 952.2 kg/m3
16079 kPa | 952.2 kg/m3
16101 kPa | 952.2 kg/m3
16128 kPa | 952.2 kg/m3
16151 kPa | 952.3 kg/m3
16174 kPa | 952.3 kg/m3
16200 kPa | 952.4 kg/m3
16223 kPa | 952.3 kg/m3
16246 kPa | 952.4 kg/m3
16269 kPa | 952.4 kg/m3
16297 kPa | 952.4 kg/m3
16320 kPa | 952.5 kg/m3
16344 kPa | 952.5 kg/m3
16367 kPa | 952.5 kg/m3
16395 kPa | 952.6 kg/m3
16418 kPa | 952.5 kg/m3
16446 kPa | 952.4 kg/m3
16469 kPa | 952.5 kg/m3
16493 kPa | 952.7 kg/m3
16516 kPa | 952.5 kg/m3
16545 kPa | 952.7 kg/m3
16569 kPa | 952.6 kg/m3
16588 kPa | 952.6 kg/m3
16616 kPa | 952.6 kg/m3
16640 kPa | 952.6 kg/m3
16669 kPa | 952.7 kg/m3
16698 kPa | 952.5 kg/m3
16723 kPa | 952.7 kg/m3
16747 kPa | 952.8 kg/m3
16771 kPa | 952.8 kg/m3
16800 kPa | 952.8 kg/m3
16825 kPa | 952.8 kg/m3
16854 kPa | 952.8 kg/m3
16879 kPa | 952.8 kg/m3
16882 kPa | 952.8 kg/m3
16904 kPa | 953 kg/m3
16933 kPa | 952.8 kg/m3
16958 kPa | 952.8 kg/m3
16983 kPa | 952.9 kg/m3
17013 kPa | 952.9 kg/m3
17038 kPa | 952.9 kg/m3
17064 kPa | 953.1 kg/m3
17089 kPa | 952.9 kg/m3
17120 kPa | 952.9 kg/m3
17145 kPa | 953 kg/m3
17176 kPa | 952.9 kg/m3
17202 kPa | 952.9 kg/m3
17228 kPa | 952.9 kg/m3
17254 kPa | 953.1 kg/m3
17285 kPa | 953 kg/m3
17312 kPa | 953.1 kg/m3
17340 kPa | 953 kg/m3
17368 kPa | 953 kg/m3
17394 kPa | 953.2 kg/m3
17426 kPa | 953.1 kg/m3
17453 kPa | 953.1 kg/m3
17463 kPa | 953.2 kg/m3
17480 kPa | 953.2 kg/m3
17483 kPa | 953.2 kg/m3
17507 kPa | 953.3 kg/m3
17512 kPa | 953.2 kg/m3
17528 kPa | 953.2 kg/m3
17538 kPa | 953.2 kg/m3
17548 kPa | 953.1 kg/m3
17566 kPa | 953.2 kg/m3
17572 kPa | 953.3 kg/m3
17598 kPa | 953.3 kg/m3
17625 kPa | 953.3 kg/m3
17652 kPa | 953.3 kg/m3
17686 kPa | 953.1 kg/m3
17709 kPa | 953.4 kg/m3
17742 kPa | 953.3 kg/m3
17770 kPa | 953.4 kg/m3
17798 kPa | 953.4 kg/m3
17831 kPa | 953.5 kg/m3
17859 kPa | 953.5 kg/m3
17882 kPa | 953.5 kg/m3
17887 kPa | 953.4 kg/m3
17921 kPa | 953.4 kg/m3
17949 kPa | 953.5 kg/m3 and 953.6 kg/m3
17971 kPa | 953.5 kg/m3
17978 kPa | 953.5 kg/m3
17993 kPa | 953.6 kg/m3
18012 kPa | 953.5 kg/m3
18019 kPa | 953.6 kg/m3
18040 kPa | 953.4 kg/m3
18075 kPa | 953.5 kg/m3
18104 kPa | 953.5 kg/m3
18133 kPa | 953.6 kg/m3
18161 kPa | 953.6 kg/m3
18196 kPa | 953.5 kg/m3
18200 kPa | 953.7 kg/m3
18226 kPa | 953.7 kg/m3
18227 kPa | 953.7 kg/m3
18250 kPa | 953.7 kg/m3
18255 kPa | 953.7 kg/m3
18275 kPa | 953.8 kg/m3
18290 kPa | 953.7 kg/m3
18320 kPa | 953.8 kg/m3
18350 kPa | 953.7 kg/m3
18386 kPa | 953.8 kg/m3
